These are literature values, as cited in article PMC13167888 (Cancer Chemotherapy and Pharmacology, 2026).

The pIC50 is the negative decadic logarithm of the IC50, by convention in mol/L.

pIC50: −log10 of the molar value.

The conditions of data set [1]: bosutinib.
The target of another data set is T1, BCRP (Homo sapiens, UniProt Q9UNQ0).
T1 sequence (Q9UNQ0 1-655): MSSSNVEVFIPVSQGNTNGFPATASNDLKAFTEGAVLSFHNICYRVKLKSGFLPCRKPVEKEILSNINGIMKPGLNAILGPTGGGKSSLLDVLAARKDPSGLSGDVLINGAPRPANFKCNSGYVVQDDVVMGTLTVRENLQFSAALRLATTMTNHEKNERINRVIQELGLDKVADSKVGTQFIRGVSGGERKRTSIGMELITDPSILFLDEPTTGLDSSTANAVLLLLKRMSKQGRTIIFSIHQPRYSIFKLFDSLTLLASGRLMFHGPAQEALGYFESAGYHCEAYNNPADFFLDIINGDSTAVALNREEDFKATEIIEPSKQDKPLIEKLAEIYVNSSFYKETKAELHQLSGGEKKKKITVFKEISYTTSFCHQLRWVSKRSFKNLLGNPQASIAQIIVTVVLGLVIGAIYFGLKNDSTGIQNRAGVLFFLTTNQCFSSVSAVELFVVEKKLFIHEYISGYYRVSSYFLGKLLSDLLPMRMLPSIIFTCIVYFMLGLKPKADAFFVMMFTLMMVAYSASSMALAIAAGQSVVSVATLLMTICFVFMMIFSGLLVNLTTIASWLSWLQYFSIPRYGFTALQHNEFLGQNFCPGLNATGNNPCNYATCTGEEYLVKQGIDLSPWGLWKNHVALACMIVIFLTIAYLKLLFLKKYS

With `COc1cc(Nc2c(C#N)cnc3cc(OCCCN4CCN(C)CC4)c(OC)cc23)c(Cl)cc1Cl` [bosutinib], the Plasma protein binding in data set [1] is 94% [37].

In the case of `CC(C)/N=c1\cc2n(-c3ccc(Cl)cc3)c3ccccc3nc-2cc1Nc1ccc(Cl)cc1` [clofazimine], the pIC50 on BCRP was 5.49.
